For data set [1], the system named is noradrenergic fibres in the locus coeruleus. The experiment in a line: Tyrosine hydroxylase immunolocalization in locus coeruleus after intranasal administration (central regulation of sympathetic activity). It is filed as in vivo, rat. As to conditions: adult rats. The method, then: (§1) (A) Representative photomicrograph of the results from the Western blot analysis performed on conditioned culture media of rat PC12 cells stimulated with hproNGF-A (upper panel) or mNGF (lower panel) for 24 hours. The samples examined were collected at time 0 and 4, 8 and 24 hours post-stimulation. (B) Representative photomicrographs of the immunolocalization of the tyrosine hydroxylase enzyme on brain tissue (locus coeruleus) sections taken from rats after intranasal administration of proNGFA or mNGF.
The present inventors also carried out experiments aimed at testing the effects of the action of NGF and the proNGF-A peptide on the central regulation of the neuronal sympathetic activity. In short, the NGF or proNGF-A peptides were administered intranasally to the brain parenchyma of adult rats. Subsequently, the noradrenergic neurons located in the locus coeruleus, a brain region responsible for the central control of the functionality of the sympathetic nervous system, were analysed by immunolabelling on thin slices for tyrosine hydroxylase enzyme. Tyrosine hydroxylase enzyme represents an indirect measurement of the production of the noradrenaline neurotransmitter in neurons of certain brain areas. […]

In data set [2] the test system is PC12 cells. The experiment in a line: Viability test on PC12 cells in suspension after serum deprivation. The data set is classed as cell-based, rat. As to conditions: 48 hours of culture, 50 ng/ml mNGF or 100 ng/ml hproNGF-A or hproNGF-B. The method, then: FIG. 3B is a histogram showing the results from the viability test performed on PC12 cells in suspension after addition of the factors listed under A above.
PC12 cells were cultured in RPMI 1640 culture medium supplemented with 10% horse serum and 5% calf serum in a humidified atmosphere with 5% CO2 at 37° C. The exponentially growing cells were then seeded on 6-well plates containing poly-L-Lysine, to allow adherence of the cells to the bottom of the well.

Data set [3] has as its system PC12 cells. Description: PC12 cell neuronal differentiation test. The data set is classed as cell-based, rat. As to conditions: serum-free medium, 50 ng/ml mNGF or 100 ng/ml hproNGF-A or hproNGF-B, five-day incubation.
The subject of a further data set is extracellular proteases. Description: Permanence in conditioned culture medium of stimulated PC12 cells (Western blot), resistance to extracellular proteases. Conditions: conditioned medium of rat PC12 cells, sampled at 0, 4, 8 and 24 hours post-stimulation. It is filed as in vitro ADME. The method, then:
as §1
In order to assess the resistance of hproNGF-A and mature NGF to the action of extracellular proteases, rat pheochromocytoma cells (PC12) were stimulated with either of the two peptides. Samples collected from conditioned cell culture media at successive times (time zero; 4, 8 and 24 hours post-stimulation) were subjected to Western blot assay in order to verify the permanence of hproNGF-A and mNGF in the culture medium.
A general note: In western blotting, separated proteins are transferred to a membrane and probed.

Data set [4] relates to hippocampal synaptic plasticity (DG-LTP). The experiment in a line: Long-term potentiation (LTP) in dentate gyrus of hippocampal slices after intranasal administration. As to conditions: intranasal once a day for four days, 60 minutes after HFS.
Data set [5] relates to hippocampal cells of the dentate gyrus (granule layer and hilus). The experiment in a line: Hoechst-positive cell count in hippocampal dentate gyrus after intranasal administration. As to conditions: control (healthy) rats, intranasal once a day for four days. The data set is classed as in vivo, rat. As for the experimental part: The broken lines show regions of the Dentate Gyrus (DG-H and DG-Granule Layer) where cell counts were performed, shown in the graphs in FIG. 4B.
To check whether the opposite nature of the two different hproNGF isoforms could affect the number of hippocampal cells and whether the intranasal administration of proNGF could have an effect on diabetes-induced neuronal loss, Hoechst-positive cells were analysed by confocal microscopy in both the cell layers of the hippocampal dentate gyrus, the granule layer (GL) and the hilus (HL) (as shown in FIG. 4A). The rats were deeply anesthetized and transcardially perfused with 0.1 M phosphate buffer followed by 4% paraformaldehyde fixative in 0.1 M phosphate buffer. The brains were removed and cryoprotected with 30% sucrose in phosphate buffer. 40 μm-thick coronal sections of both hemispheres. ranging −2.40 /−3.72 mm from the bregma according to the Paxinos Rat Brain Atlas, were cut on a cryostat and then processed. The brain sections were pre-incubated for 2 hours at room temperature (RT) with PBS containing 10% donkey serum (v/v), 1% BSA (w/v) and 0.3% Triton X-100 (v/v). After washing with PBS, the sections were incubated (2 h, RT) with specific secondary antibodies. Subsequently, the sections were rinsed three times in PBS and incubated for 10 minutes with Hoechst dye for specific staining of the nuclei. […]

The subject of data set [6] is hippocampal dentate gyrus neurogenesis. Description: Hippocampal neurogenesis (BrdU, DCX, NeuN confocal microscopy) after intranasal administration. It is filed as in vivo, rat. An excerpt:
The box-plot graphs enclosed by a broken line show the results from the quantitative analyses in healthy rats (A) and diabetic rats (B) of cells that have incorporated BrdU and are at the same time positive for Doublecortin (DCX) (graphs enclosed by a dashed line box) or NeuN (graphs enclosed by a dotted line box). Median±interquartile, n=4 animals per experimental group.
It is also known that diabetic encephalopathy impairs the hippocampal neurogenesis process. In order to assess the effects induced by exogenous administration of the two hproNGF peptide isoforms on hippocampal neurogenesis, the hproNGF-A peptide for use according to the invention and the known hproNGF-B peptide were administered to healthy and diabetic rats.
In order to assess the effects of the treatments on dentate gyrus neurogenesis, at the time of diabetes induction, rats were inoculated with bromodeoxyuridine (BrdU), which intercalates into newly formed DNA, specifically labelling cells proliferating at the time of inoculation. Subsequently, a confocal microscopy analysis was performed by labelling with anti-BrdU antibodies and specific antibodies to detect the presence of immature neurons (antibodies to doublecortin, DCX) or mature neurons (antibodies to NeuN).

Take “mNGF: mature Nerve Growth Factor (NGF) peptide, neurotrophin used as comparator”: in data set [1], the “arborization (sprouting) of noradrenergic fibres containing tyrosine hydroxylase in the locus coeruleus” value is recorded as “causes arborization (sprouting) of the noradrenergic fibres”. Also, the “percentage of living cells” value with PC12 cells [2] is given as “maintain a significant proportion of living cells”. For the same substance, in the data set with PC12 cells [3], the “neuronal differentiation of PC12 cells (neurites)” value is on record as “exhibited the characteristic extensions (neurites)”. In addition, the “time the peptide remains in the culture medium after the stimulus” value with extracellular proteases is recorded as “not more than 8 hours”.
On to “hproNGF-B: already known human proNGF variant (accession number NM_002506.2), precursor of mature NGF, 221 amino acids long”, for which the “percentage of living cells” value in the data set on PC12 cells [2] is listed as “induces a decrease in the percentage of living cells”. Moreover, the “neuronal differentiation of PC12 cells (neurites)” value with PC12 cells [3] is reported as “showed evident signs of suffering”. Also, the “extent of DG-LTP compared to saline-treated group” value in data set [4] (control groups (healthy animals)) was found to be 28%. Also, in data set [4] (diabetic rats (streptozotocin)), the “DG-LTP compared to saline-treated diabetic rats (improvement of streptozotocin-induced decrease)” value was “not different from that measured in saline-treated diabetic rats”. Further, the “number of cells in hilus and granule layer of dentate gyrus compared to saline-treated rats” value in data set [5] is “decreased significantly”. In addition, in data set [6] (diabetic rats), the “diabetes-induced alteration in the number of BrdU+-cells” value is “no influence” and the “percentage of BrdU+-cells expressing DCX” value is “no influence”. In addition, in data set [6] (healthy rats), the “number of BrdU-immunopositive cells” value is “significant reduction”; the “percentage of cells simultaneously immunopositive for BrdU and DCX” value is “significant reduction”.

The record behind these values is patent US20210047380A1, “A NEUROTROPHIC PEPTIDE FOR THE THERAPEUTIC TREATMENT OF NEURODEGENERATIVE AND/OR INFLAMMATORY DISEASES” (CONSIGLIO NAZIONALE DELLE RICERCHE, priority 2018, published 2021).
